Patent US20150119410A1, “BIOMARKERS OF RESPONSE TO NAE INHIBITORS” (MILLENNIUM PHARMACEUTICALS, INC., priority 2011, published 2015)

Columns and labels:
Format in all cases: cell-based
[1] = system: MKN28; assay: Cell line panel 1 viability screen; details: Homo sapiens, MKN-28; MKN28 (stomach); 2 μM MLN4924, 72 hours; DMSO control about 1
Method: (§1) To support clinical development and identify potential biomarkers of tumor sensitivity or resistance, two large cancer cell line panels (Panel 1, N=653 (McDermott et al. (2007) PNAS 104:19936-19941); Panel 2, N=240 (O'Day et al. (2010) Fourth AACR International Conference on Molecular Diagnostics in Cancer Therapeutic Development)) were treated with MLN4924 and cell viability data (IC50, EC50, and POC—Percentage of Control) were generated.
(§2) Panel 1 (McDermott et al., supra). The cell lines were exposed to three MLN4924 concentrations (20 nM, 200 nM, and 2 μM) for 72 hours. Viability, i.e., cell number, was quantified by measuring fluorescence of a cell-permeant nucleic acid stain. Mean of triplicate values for each sample were taken and compared to DMSO control to calculate percentage of control. In the results, control or no activity value is given a value of about 1, sensitivity is indicated by a value less than 1, with 0 as death of the entire cell population and resistance indicated by a value greater than 1. A continuum of viability values was obtained for each concentration, so some values were selected as cut-offs for final determination of sensitivity or resistance. For example, median POC values of less than the median value of all POC's recorded in the panel (<0.34) indicated sensitivity, values of 0.34 to 0.75 indicated borderline sensitivity, values greater than the 3rd quartile of all POC's in the panel (>0.75) insensitivity or resistance. […] Final judgment of cell line as sensitive, insensitive or resistant was determined by its viability at 2 μM.

[2] = system: MDA-MB-231; assay: Cell line panel 1 viability screen; details: MDA-MB-231 (breast)
Method: as §1, §2

[3] = system: SW626; assay: Cell line panel 1 viability screen; details: Homo sapiens; SW626 (ovary); 2 μM MLN4924, 72 hours; DMSO control about 1
Method: as §1, §2

[4] = system: CAL-33; assay: Cell line panel 1 viability screen; details: CAL-33 (upper aerodigestive tract)
Method: as §1, §2

[5] = system: HT55; assay: Cell line panel 1 viability screen; details: Homo sapiens; HT55 (intestine); 2 μM MLN4924, 72 hours; DMSO control about 1
Method: as §1, §2

[6] = system: HCT-15; assay: Cell line panel 1 viability screen; details: Homo sapiens; HCT-15 (intestine); 2 μM MLN4924, 72 hours; DMSO control about 1
Method: as §1, §2

[7] = system: SW620; assay: Cell line panel 1 viability screen
Method: as §1, §2

[8] = system: GAMG; assay: Cell line panel 1 viability screen; details: GAMG (central nervous system)
Method: as §1, §2

[9] = system: ACHN; assay: Cell line panel 1 viability screen; details: ACHN (kidney)
Method: as §1, §2

[10] = system: CAPAN-1; assay: Cell line panel 1 viability screen; details: CAPAN-1 (pancreas)
Method: as §1, §2

[11] = system: SW 1463; assay: Cell line panel 1 viability screen
Method: as §1, §2

[12] = system: COCM1; assay: Cell line panel 1 viability screen
Method: as §1, §2

[13] = system: FADU; assay: Cell line panel 1 viability screen; details: FADU (upper aerodigestive tract)
Method: as §1, §2

[14] = system: NUGC-3; assay: Cell line panel 1 viability screen; details: NUGC-3 (stomach)
Method: as §1, §2

[15] = system: ESS-1; assay: Cell line panel 1 viability screen; details: ESS-1 (Uterus)
Method: as §1, §2

[16] = system: NCl-H1703; assay: Cell line panel 1 viability screen; details: NCl-H1703 (lung NSCLC); 2 μM MLN4924, 72 hours; DMSO control about 1
Method: as §1, §2

[17] = system: HCC1806; assay: Cell line panel 1 viability screen; details: HCC1806 (breast)
Method: as §1, §2

[18] = system: COLO-678; assay: Cell line panel 1 viability screen; details: COLO-678 (large_intestine)
Method: as §1, §2

[19] = system: CAL-27; assay: Cell line panel 1 viability screen; details: CAL-27 (upper aerodigestive tract)
Method: as §1, §2

[20] = system: HCT-116 TP53 −/− cells; assay: ATPlite viability assay, isogenic HCT-116 pair
Method: (§3) Paired isogenic HCT-116 cell lines that were either wild-type (+/+) or null (−/−) for p53 expression (HD PAR-018 and HD 104-001, respectively, Horizon Discovery Ltd) were seeded in separate 384-well plates and then treated the following day with a titration of MLN4924 triplicate, and incubated for 24, 36, 48 or 72 h, with seeding densities of 1600, 1200, 800, and 400 cells/well, respectively. Following compound incubation, viability of HCT-116 cells was assessed by ATPlite assay (Perkin Elmer) according to the manufacturer's instructions using the LEADseeker imaging system (GE Healthcare).

[21] = system: HCT-116 TP53 +/+ cells; assay: ATPlite viability assay, isogenic HCT-116 pair; details: Homo sapiens, HCT-116 TP53 +/+ (wild-type), 72 h, read-out: LC50 (the source's name)
Method: as §3

[22] = Homo sapiens, 2 μM MLN4924, 72 hours, DMSO control about 1

For `NS(=O)(=O)OC[C@@H]1C[C@@H](n2ccc3c(N[C@H]4CCc5ccccc54)ncnc32)C[C@@H]1O` [MLN4924, ((1S,2S,4R)-4-{4-[(1S)-2,3-dihydro-1H-inden-1-ylamino]-7H-pyrrolo[2,3-d]pyrimidin-7-yl}-2-hydroxycyclopentyl)methyl sulphamate], the viability at 2 µM [1] was 28.5%, the viability at 2 µM [2, 22] was 52.8% and the Phenotype ([2]; NF2 mutant) was “insensitive (values of 0.34 to 0.75 indicated borderline sensitivity)”. For the same molecule, the viability at 2 µM [3] was 55.4%, the Phenotype ([4]; SMAD4 mutant) was “sensitive (median POC values of less than the median value of all POC's recorded in the panel (<0.34) indicated sensitivity)” and the viability at 2 µM [4, 22] was 14.4%. For the same molecule, the viability at 2 µM [5] was 51.4%, the viability at 2 µM [6] was 66.5% and the viability at 2 µM ([7]; Homo sapiens, SW-620, SW620 (intestine), 2 μM MLN4924, 72 hours, DMSO control about 1) was 49.3%. The Phenotype ([7]; SW620 (large_intestine), SMAD4 mutant) was “insensitive (values of 0.34 to 0.75 indicated borderline sensitivity)”, the Phenotype ([8]; SMAD4 mutant) was “sensitive (median POC values of less than the median value of all POC's recorded in the panel (<0.34) indicated sensitivity)” and the viability at 2 µM [8, 22] was 7.21%. The Phenotype ([9]; NF2 mutant) was “sensitive (median POC values of less than the median value of all POC's recorded in the panel (<0.34) indicated sensitivity)”, the viability at 2 µM [9, 22] was 6.21% and the Phenotype ([10]; SMAD4 mutant) was “sensitive?”. For the same molecule, the viability at 2 µM [10, 22] was 14.7%, the viability at 2 µM ([11]; Homo sapiens, SW 1463 / SW1463 (intestine), 2 μM MLN4924, 72 hours, DMSO control about 1) was 89.6% and the Phenotype ([11]; SW1463 (Intestine), FBXW7 mutant) was “resistant (values greater than the 3rd quartile of all POC's in the panel (>0.75) insensitivity or resistance)”. The viability at 2 µM ([12]; COCM1 / CoCM-1 (intestine), 2 μM MLN4924, 72 hours, DMSO control about 1) was 114%, the Phenotype ([12]; CoCM-1 (large_intestine), SMAD4 mutant) was “resistant (values greater than the 3rd quartile of all POC's in the panel (>0.75) insensitivity or resistance)” and the Phenotype ([13]; SMAD4 mutant) was “sensitive (median POC values of less than the median value of all POC's recorded in the panel (<0.34) indicated sensitivity)”. For the same molecule, the viability at 2 µM [13, 22] was 7.3%, the viability at 2 µM [14, 22] was 9.8% and the Phenotype ([14]; NF2 mutant) was “sensitive (median POC values of less than the median value of all POC's recorded in the panel (<0.34) indicated sensitivity)”. The Phenotype ([15]; FBXW7 mutant) was “sensitive (median POC values of less than the median value of all POC's recorded in the panel (<0.34) indicated sensitivity)”, the viability at 2 µM [15, 22] was 5.29% and the viability at 2 µM [16] was 11%. For the same molecule, the Phenotype ([17]; KDM6A mutant) was “sensitive (median POC values of less than the median value of all POC's recorded in the panel (<0.34) indicated sensitivity)”, the viability at 2 µM [17, 22] was 1.16% and the Phenotype ([18]; SMAD4 mutant) was “resistant (values greater than the 3rd quartile of all POC's in the panel (>0.75) insensitivity or resistance)”. For the same molecule, the viability at 2 µM [18, 22] was 81.4%, the Phenotype ([19]; SMAD4 mutant) was “sensitive (median POC values of less than the median value of all POC's recorded in the panel (<0.34) indicated sensitivity)” and the viability at 2 µM [19, 22] was 2.71%. The CC50 ([20]; Homo sapiens, HCT-116 TP53 −/− (null), 72 h, ATPlite, read-out: LC50 (the source's name)) was 74 ± 5 nM, the “cell death at the highest drug concentrations” value ([20]; TP53 −/− versus TP53 +/+ HCT-116, 24, 36, and 48 h) was “less cell death” and the CC50 [21] was 21 ± 1 nM.
